Among the test systems are Streptococcus mutans; Saccharomyces cerevisiae; Micrococcus luteus; Escherichia coli ML-35; Bacillus megaterium; Escherichia coli K-12; Staphylococcus aureus; Pseudomonas aeruginosa; Klebsiella pneumoniae; Salmonella typhimurium.
What all share (assay): ≥ marks a high value that may be exact or a test limit, other limits are often not marked, values filed in µg/mL are converted to µM
For experiment [1], the system named is Staphylococcus aureus ATCC 25923.
Experiment [2] relates to Escherichia coli ATCC 25922.
Experiment [3] relates to Pseudomonas aeruginosa ATCC 15692.
Experiment [4] deals with Pseudomonas aeruginosa ATCC 27853.
In experiment [5] the test system is Salmonella enterica subsp. enterica serovar Typhimurium ATCC 14028.
The test system of experiment [6] is Staphylococcus aureus ATCC 700699.
Experiment [7] relates to Staphylococcus aureus ATCC 43300.
In experiment [8] the test system is Bacillus subtilis ATCC 23857.
In experiment [9] the test system is Staphylococcus aureus ATCC 29213.
The test system of experiment [10] is Staphylococcus epidermidis ATCC 12228.
Experiment [11] concerns Micrococcus luteus ATCC 9341.
Experiment [12] has as its system Escherichia coli DH5alpha.
The test system of experiment [13] is Escherichia coli ATCC 8739.
Experiment [14] concerns Staphylococcus aureus ATCC 6538.

Broadly, the MIC is the lowest concentration found to suppress growth.

Values after ≈ are worked out from the molar mass of the structure shown. Bounds are passed on as bounds.

In the experiment with Streptococcus mutans, `CC(C)C[C@H](NC(=O)[C@H](CCCN=C(N)N)NC(=O)[C@H](CCCCN)NC(=O)[C@H](C)N)C(=O)N[C@@H](CC(C)C)C(=O)N[C@@H](CCCCN)C(=O)N[C@H](C(=O)N[C@@H](CC(C)C)C(=O)N[C@@H](CCCCN)C(=O)N[C@@H](CCCN=C(N)N)C(=O)N[C@@H](Cc1ccccc1)C(N)=O)C(C)C` [AKRLLKVLKRF] displayed an MIC of 16.5 µM (≈ 22.6 µg/mL).

As to `CC[C@H](C)[C@H](NC(=O)[C@H](C)NC(=O)[C@H](CC(N)=O)NC(=O)[C@@H](NC(=O)CNC(=O)CNC(=O)[C@H](CCCCN)NC(=O)[C@H](C)NC(=O)[C@H](Cc1ccccc1)NC(=O)[C@H](CCCCN)NC(=O)[C@H](CCCCN)NC(=O)[C@H](C)NC(=O)[C@H](Cc1ccccc1)NC(=O)[C@H](CC(N)=O)NC(=O)[C@H](C)NC(=O)[C@@H](NC(=O)[C@H](CCCCN)NC(=O)[C@H](CO)NC(=O)[C@H](CCSC)NC(=O)[C@H](Cc1ccccc1)NC(=O)CN)C(C)C)C(C)C)C(=O)N[C@@H](CCSC)C(=O)N[C@@H](CC(N)=O)C(=O)N[C@@H](CCC(N)=O)C(=O)N[C@@H](CCCCN)C(=O)O` [GFMSKVANFAKKFAKGGVNAIMNQK], the MIC in [1] was 128 µM (≈ 344 µg/mL); in experiment [2] it was 1 µM (≈ 2.69 µg/mL); in the experiment on Saccharomyces cerevisiae it was 8 µM (≈ 21.5 µg/mL); in [3], 4 µM (≈ 10.7 µg/mL); against Micrococcus luteus, 0.5 µM (≈ 1.34 µg/mL).

Turning to `CC(C)C[C@H](NC(=O)CNC(=O)[C@H](C)NC(=O)[C@@H](NC(=O)[C@H](CC(N)=O)NC(=O)[C@H](CO)NC(=O)[C@H](CC(C)C)NC(=O)[C@H](CC(C)C)NC(=O)CN)C(C)C)C(=O)N[C@@H](CC(C)C)C(=O)N[C@@H](CCCCN)C(=O)N[C@@H](CCC(N)=O)C(=O)N[C@@H](Cc1ccccc1)C(=O)N[C@@H](C)C(=O)N[C@@H](CCCCN)C(=O)NCC(=O)NCC(=O)N[C@H](C(=O)N[C@@H](CC(N)=O)C(=O)N[C@@H](C)C(=O)N[C@H](C(=O)N[C@@H](CC(C)C)C(=O)N[C@@H](CC(N)=O)C(=O)N1CCC[C@H]1C(=O)N[C@@H](CCCCN)C(=O)O)C(C)C)C(C)C` [GLLSNVAGLLKQFAKGGVNAVLNPK], the minimal inhibitory concentration (MIC) is 128 µM (≈ 321 µg/mL) in [1]; 8 µM (≈ 20.1 µg/mL) in experiment [2]; no less than 32 µM in the experiment on Saccharomyces cerevisiae; no less than 32 µM in experiment [3]; 1 µM (≈ 2.51 µg/mL) in the experiment with Micrococcus luteus.

On to `CC[C@H](C)[C@H](NC(=O)[C@H](CCCCN)NC(=O)[C@H](CCCCN)NC(=O)[C@H](CC(C)C)NC(=O)[C@H](CCCCN)NC(=O)[C@H](CCC(=O)O)NC(=O)[C@H](CCCCN)NC(=O)[C@@H]1CCCN1C(=O)[C@H](CCCCN)NC(=O)[C@H](CC(N)=O)NC(=O)[C@H](CCCN=C(N)N)NC(=O)[C@@H]1CCCN1C(=O)[C@H](CCCCN)NC(=O)[C@H](CCCN=C(N)N)NC(=O)[C@H](CC(C)C)NC(=O)[C@H](CCCN=C(N)N)NC(=O)[C@H](CCCCN)NC(=O)[C@H](CCCN=C(N)N)NC(=O)[C@H](CC(C)C)NC(=O)CN)C(=O)O` [GLRKRLRKPRNKPKEKLKKI], for which the MIC in experiment [1] is greater than 64 µM; with Escherichia coli ML-35 it was no less than 64 µM; in experiment [2], greater than 64 µM; in [4], greater than 64 µM; in experiment [5], greater than 64 µM; against Bacillus megaterium it was no less than 64 µM.

For the compound `CC[C@H](C)[C@H](N)C(=O)NCC(=O)N[C@@H](CCCCN)C(=O)N[C@@H](CCC(=O)O)C(=O)N[C@@H](Cc1ccccc1)C(=O)N[C@@H](CCCCN)C(=O)N[C@@H](CCCNC(=N)N)C(=O)N[C@H](C(=O)N[C@H](C(=O)N[C@@H](CCC(N)=O)C(=O)N[C@@H](CCCNC(=N)N)C(=O)N[C@H](C(=O)N[C@@H](CCCCN)C(=O)N[C@@H](CC(=O)O)C(=O)N[C@@H](Cc1ccccc1)C(=O)N[C@@H](CC(C)C)C(=O)N[C@@H](CCCNC(=N)N)C(=O)N[C@@H](CC(N)=O)C(=O)N[C@@H](CC(C)C)C(=O)N[C@H](C(=O)N1CCC[C@H]1C(=O)N[C@@H](CCCNC(=N)N)C(=O)N[C@H](C(=O)N[C@@H](CCC(=O)O)C(=O)N[C@H](C=O)CO)[C@@H](C)O)C(C)C)[C@@H](C)CC)C(C)C)[C@@H](C)CC` [IGKEFKRIVQRIKDFLRNLVPRTES], the MIC in [1] is 168 µM (≈ 509 µg/mL); in the experiment on Escherichia coli K-12, no less than 80 µM; in experiment [6], no less than 336 µM; in experiment [7], 168 µM (≈ 509 µg/mL); in the experiment on Staphylococcus aureus it was 168 µM (≈ 509 µg/mL).

For the compound `CC[C@H](C)[C@H](N)C(=O)N[C@@H](CC(C)C)C(=O)NCC(=O)N[C@H](C(=O)N[C@H](C(=O)N1CCC[C@H]1C(=O)NCC(=O)N[C@@H](CC(C)C)C(=O)N[C@@H](CC(C)C)C(=O)N[C@@H](CCCCN)C(=O)NCC(=O)N[C@@H](CC(C)C)C(N)=O)[C@@H](C)CC)[C@@H](C)O` [ILGTIPGLLKGL], the MIC is no less than 256 µM in the experiment on Escherichia coli ML-35; greater than 256 µM in experiment [2]; no less than 256 µM in experiment [8]; greater than 256 µM in [9]; greater than 256 µM in [10].

As for `CC[C@H](C)[C@H](N)C(=O)N[C@@H](CC(C)C)C(=O)N1CCC[C@H]1C(=O)N[C@@H](Cc1c[nH]c2ccccc12)C(=O)N[C@@H](CCCCN)C(=O)N[C@@H](Cc1c[nH]c2ccccc12)C(=O)N1CCC[C@H]1C(=O)N[C@@H](Cc1c[nH]c2ccccc12)C(=O)N[C@@H](Cc1c[nH]c2ccccc12)C(=O)N[C@@H](C)C(=O)N[C@@H](Cc1c[nH]c2ccccc12)C(=O)N[C@@H](CCCN=C(N)N)C(=O)N[C@@H](CCCN=C(N)N)C(N)=O` [ILPWKWPWWAWRR], the minimal inhibitory concentration (MIC) in experiment [11] is 1.6 µM (≈ 3.01 µg/mL); in the experiment on Pseudomonas aeruginosa, 50 µM (≈ 94 µg/mL); with Klebsiella pneumoniae, 25 µM (≈ 47 µg/mL); in experiment [12] it was 15 µM (≈ 28.2 µg/mL); in the experiment on Salmonella typhimurium, no less than 50 µM.

Consider `CC[C@H](C)[C@H](NC(=O)[C@H](CCCCN)NC(=O)[C@@H](N)CCCCN)C(=O)N[C@@H](CC(N)=O)C(=O)N[C@@H](CC(N)=O)C(=O)N[C@H](C(=O)N[C@H](C(=O)N[C@@H](CC(C)C)C(=O)N[C@@H](CO)C(=O)NCC(=O)N[C@@H](CC(C)C)C(=O)N[C@@H](CC(=O)O)C(=O)N[C@@H](CO)C(=O)N[C@H](C(=O)N[C@@H](C)C(=O)N[C@@H](CO)C(=O)N[C@@H](Cc1ccccc1)C(=O)N[C@@H](CO)C(=O)O)C(C)C)[C@@H](C)CC)[C@@H](C)O` [KKINNTILSGLDSVASFS], for which the MIC in experiment [1] was greater than 135 µM; in [13] it was no less than 135 µM.

On to `CC(C)[C@H](NC(=O)[C@H](CCCCN)NC(=O)[C@H](Cc1ccccc1)NC(=O)[C@@H](NC(=O)[C@@H](NC(=O)[C@@H](N)CCCCN)C(C)C)C(C)C)C(=O)N[C@@H](CCCCN)C(=O)N[C@@H](Cc1ccccc1)C(=O)N[C@@H](CCCCN)C(N)=O` [KVVFKVKFK], for which the MIC in experiment [11] and in experiment [14] was 5.57 µM (≈ 6.24 µg/mL) each time.

On to `CC[C@H](C)[C@H](NC(=O)[C@H](CCCCN)NC(=O)[C@H](Cc1ccc(O)cc1)NC(=O)[C@H](Cc1ccccc1)NC(=O)[C@H](CCC(N)=O)NC(=O)[C@H](CO)NC(=O)[C@H](CCC(=O)O)NC(=O)[C@H](CCCN=C(N)N)NC(=O)[C@H](CC(N)=O)NC(=O)[C@@H]1CCCN1)C(=O)N[C@@H](CC(C)C)C(=O)N[C@@H](CCCN=C(N)N)C(=O)N[C@@H](CCCCN)C(=O)N[C@H](C(=O)N[C@@H](CC(C)C)C(=O)N[C@@H](CO)C(=O)N[C@@H](CCCCN)C(=O)N[C@H](C(=O)N[C@H](C(=O)O)C(C)C)[C@@H](C)CC)[C@@H](C)CC` [PNRESQFYKILRKILSKIV], for which the MIC was 27.4 µM (≈ 64 µg/mL) in experiment [1] and 6.86 µM (≈ 16 µg/mL) in experiment [13].

As to `CC[C@H](C)[C@H](NC(=O)[C@H](CCCCN)NC(=O)[C@H](CCCN=C(N)N)NC(=O)CNC(=O)[C@H](CC(C)C)NC(=O)[C@H](CCCN=C(N)N)NC(=O)[C@H](CCCN=C(N)N)NC(=O)[C@H](CC(C)C)NC(=O)CNC(=O)[C@H](CCCN=C(N)N)NC(C)=O)C(=O)N[C@@H](CCCCN)C(=O)N[C@@H](CCCCN)C(=O)NCC(=O)N[C@@H](CC(C)C)C(=O)N[C@@H](CCCCN)C(=O)N[C@@H](CCCCN)C(=O)N[C@@H](Cc1ccc(O)cc1)C(=O)NCC(N)=O` [RGLRRLGRKIKKGLKKYG], the MIC in experiment [2] amounted to 35.4 µM (≈ 76.7 µg/mL); in [13], 17.7 µM (≈ 38.3 µg/mL); in experiment [4], 17.7 µM (≈ 38.3 µg/mL); in the experiment on Klebsiella pneumoniae, 70.7 µM (≈ 153 µg/mL).

These data come from DBAASP.
